Results on four compounds are retold here after patent US8841342B2, “Carrier” (Vital Health Sciences Pty. Ltd., priority 2002, dated 2014).

The conditions of data set [1]: cited from earlier work.
A short description of data set [2]: Transdermal delivery of estradiol and estradiol phosphate in ovariectomised hairless rats, total estrogens RIA in plasma.
Experimental: Animals: 23 female albino hairless rats were ovariectomised under isoflurane-induced anaesthesia and allowed to recover for 10 days prior to experimentation.
Blood was collected into EDTA tubes, then centrifuged at 5000 rpm for 10 minutes. Plasma was removed and stored at −80° C. until assayed.
20 μl was transferred to an Eppendorf tube and the solvent was evaporated in a nitrogen stream. Then 0.999 g of the carrier cream from example 1 was added, and mixed with a glass rod and centrifuged. This was repeated 5 times. Final concentration=4.90 μg/ml.
20 μl was transferred to an Eppendorf tube and the solvent was evaporated in a nitrogen stream. Then 1.003 g of the carrier cream from example 1 was added, and mixed with a glass rod and centrifuged. This was repeated 5 times. Final concentration=4.89 μg/ml.
20 μl of these solutions was directly applied to the skin.
Each formulation was applied to the dorsal skin of an anaesthetised rat in an area of approximately 4 cm^2 marked with an indelible felt tip marker. […] The formulation was ‘rubbed’ in until it appeared to have been absorbed into the skin, which took between 5-10 min. […]
The standard curve range for this assay is 2.5-100 pg/ml (r^2=−0.943). Extraction efficiency was determined through a series of spiking assays and was between 90 to 98% using diethyl ether as the extraction solvent for rat plasma and organs. […]
The nature of data set [3]: Acute transdermal penetration of 3H-estradiol and 3H-estradiol phosphate in the hairless rat. Format: in vivo, female albino hairless rats. The note with it: 24 hour period.
Experimental: Animals: 6 female albino hairless rats were used in this study (n=3 per treatment group).
Transdermal Formulation Preparation and Application: ^3H-E and ^3H-EP were provided by Vital Health Sciences Pty Ltd and prepared in formula approximately 1 hour before application in the carrier cream from Example 1.
The solvents from both ^3H-E and ^3H-EP were evaporated under a stream of nitrogen. Once completely dry 0.498 g of the carrier cream of example 1 was added to ^3H-E and 0.502 g to ^3H-EP and mixed with a glass rod and centrifuged for 1 minute. This was repeated 5 times.
Each formulation was applied to the dorsal skin of an anaesthetised rat in an area of approximately 4 cm^2 marked with an indelible felt tip marker. […] The formulation was ‘rubbed’ in until it appeared to have been absorbed into the skin, which took between 5 to 10 minutes. A tegaderm (3M) patch was applied to the area to prevent animals from removing the formulation.
The nature of data set [4]: Transdermal delivery of testosterone and testosterone phosphate in ovariectomised hairless rats, total testosterone in plasma. Format: in vivo, Female albino hairless rats. As to conditions: for concentration of testosterone in blood: topical 1 μg in carrier of Example 1. The protocol: Animals: 12 Female albino hairless rats were ovariectomised under isoflurane-induced anesthesia and allowed to recover for 15 days prior to experimentation.
Plasma was removed and stored at −80° C. until assay.
Testosterone Phosphate (TP): 4.41 mg of TP was dissolved in 15 ml of water and then made up to 100 ml with ethanol. […] This was repeated 5 times.
Testosterone (T): 3.94 mg of T was dissolved in 15 ml of water and then made up to 100 ml with ethanol. […] This was repeated 5 times.

In the case of `C[C@]12CC[C@@H]3c4ccc(O)cc4CC[C@H]3[C@@H]1CC[C@@H]2O` [E, estradiol], the “mean blood levels of estradiol 24 hours post dose” value in data set [1] (3 mg daily over 30 cm2, carrier with padimate O, 4 women, 9 days) is 53 ± 7 pg/mL. For the same compound, the “improvement of circulating estradiol from baseline” value in data set [1] (baseline 13±5 pg/ml) is recorded as 4 fold.
Consider `C[C@]12CC[C@@H]3c4ccc(O)cc4CC[C@H]3[C@@H]1CC[C@@H]2OP(=O)(O)O` [EP, estradiol 3:phosphate], for which, in data set [2] (equivalent doses in carrier of Example 1, over 24 hours), the “plasma concentration of the hormone, EP versus E treatment” value is reported as “at least twice the plasma concentration of the hormone compared to the E treatment”. In addition, in data set [2] (topical in carrier cream of Example 1), the “inflammatory symptoms (erythema, oedema) at the application site” value is reported as “neither E or EP treatment produced any inflammatory symptoms”. The “levels in epidermis and dermis” value in data set [3] is “Higher levels of EP were found in the epidermis and dermis”.
As for `C[C@]12CC[C@H]3[C@@H](CCC4=CC(=O)CC[C@@]43C)[C@@H]1CC[C@@H]2O` [T, testosterone], the “concentration of testosterone in blood” value in data set [4] was “increased”. In addition, the “maximum concentration of total testosterone in plasma (mean±SD)” value in data set [4] (topical 1 μg in carrier of Example 1, baseline subtracted) was 30.90 ± 11.00 pg/mL.
Turning to testosterone phosphate [TP], the “concentration of testosterone in blood” value in data set [4] was “increased”.
